Target: AChE (Homo sapiens, UniProt P22303)
Experiment: ROCMCBs

AChE, sequence (P22303 32-617 isoform P22303-2 limits assumed): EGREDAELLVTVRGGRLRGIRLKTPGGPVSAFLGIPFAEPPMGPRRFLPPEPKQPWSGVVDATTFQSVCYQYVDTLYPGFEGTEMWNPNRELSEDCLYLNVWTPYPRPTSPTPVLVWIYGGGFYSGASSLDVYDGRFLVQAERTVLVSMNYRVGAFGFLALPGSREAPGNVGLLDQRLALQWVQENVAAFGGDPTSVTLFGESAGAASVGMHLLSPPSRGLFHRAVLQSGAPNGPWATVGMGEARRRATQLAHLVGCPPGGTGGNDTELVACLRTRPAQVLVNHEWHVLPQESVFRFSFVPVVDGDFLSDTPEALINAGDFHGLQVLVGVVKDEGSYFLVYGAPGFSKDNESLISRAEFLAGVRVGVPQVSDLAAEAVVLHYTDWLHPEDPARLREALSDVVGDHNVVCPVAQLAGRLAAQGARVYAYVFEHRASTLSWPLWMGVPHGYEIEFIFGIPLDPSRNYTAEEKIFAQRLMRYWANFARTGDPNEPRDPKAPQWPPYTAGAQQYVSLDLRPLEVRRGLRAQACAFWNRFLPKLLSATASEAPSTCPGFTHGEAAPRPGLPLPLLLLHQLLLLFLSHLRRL

SMILES | IC50 [µM]
OCc1ccc(O[C@@H]2O[C@H](CO)[C@@H](O)[C@H](O)[C@H]2O)cc1 [gastrodin] | 3.2
O=C(O)[C@H]1O[C@@H](Oc2cc3oc(-c4ccccc4)cc(=O)c3c(O)c2O)[C@H](O)[C@@H](O)[C@@H]1O [baicalin] | 12.2
CC[C@H]1CN2CC[C@]3(C(=O)Nc4ccccc43)[C@@H]2C[C@@H]1/C(=C\OC)C(=O)OC [rhynchophylline] | 66.3
COC(=O)C1=CO[C@@H](O[C@@H]2O[C@H](CO)[C@@H](O)[C@H](O)[C@H]2O)[C@@H]2C(CO)=CC[C@H]12 [geniposide] | 8.3
